Laboratory results taken from patent publication US10934297B2, “5-heteroaryl substituted indazole-3-carboxamides and preparation and use thereof” (Samumed, LLC, priority 2018, dated 2021).

Key:
GSK3β kinase = GSK3β kinase (Homo sapiens (Human), UniProt P49841); experiment: GSK3β kinase assay (Ser/Thr 09 peptide Z-lyte FRET); type: biochemical; settings: read-out: EC50 (method: IC50)
Procedure: Representative compounds were screened using the assay procedure for GSK3β kinase activity as described below.
This is a non-radioactive assay using fluorescence resonance energy transfer (FRET) between coumarin and fluorescein to detect kinase activity which is represented as ratio of coumarin emission/fluorescein emission.
The mixture is allowed to incubate with the representative compounds for one hour at room temperature. All reactions were performed in duplicate. Unphosphorylated (“0% Control”) and phosphorylated (“100% control”) forms of Ser/Thr 18 serve as control reactions.
After incubation, diluted Development Buffer is added to the reaction and allowed to further incubate for one hour at room temperature.
Dose-response curves are generated and inhibitory concentration (IC50) values are calculated using non-linear regression curve fit in the Dotmatics' Studies Software (Bishops Stortford, UK).

DYRK1A kinase = DYRK1A kinase (Homo sapiens (Human), UniProt Q13627); experiment: DYRK1A kinase assay (Ser/Thr 18 peptide Z-lyte FRET); type: biochemical; settings: read-out: EC50 (method: IC50)
Procedure: Representative compounds were screened using the assay procedure for DYRK1A kinase activity as described below.
This is a non-radioactive assay using fluorescence resonance energy transfer (FRET) between coumarin and fluorescein to detect kinase activity which is represented as a ratio of coumarin emission/fluorescein emission.
The mixture was allowed to incubate with the representative compounds for one hour at room temperature. All reactions were performed in duplicate. Unphosphorylated (“0% Control”) and phosphorylated (“100% control”) forms of Ser/Thr 18 served as control reactions. Additionally, an 11-point dose-response curve of Staurosporine (1 uM top) was run to serve as a positive compound control.
After incubation, Development Reagent A was diluted in Development Buffer then added to the reaction and allowed to further incubate for one hour at room temperature.

[1] = tested on: SW480 colon carcinoma cells; experiment: Cell viability assay (CellTiter-Glo) in SW480 colon carcinoma cells; type: cell-based, human; settings: Homo sapiens, 96 h, four days
Procedure: Representative compounds were screened using the assay procedure to assess the effect on cell viability as described below.
SW480 colon carcinoma cells were transduced with a lentiviral vector expressing luciferase with a human Sp5 promoter consisting of a sequence of eight TCF/LEF binding sites. SW480 cells stably expressing the Sp5-Luc reporter gene and a hygromycin resistance gene were selected by treatment with 150 μg/mL of hygromycin for 7 days. These stably transduced SW480 cells were expanded in cell culture and used for all further screening activities.
For the Cell Viability Assays, the cells were plated at 2,000 cells/well in 384-well plates with a DMEM medium containing 1% fetal bovine serum, and 1% Penicillin-Streptomycin and incubated for […] at 37° C. and 5% CO2. Eight replicates of DMSO-treated cells served as controls and cells treated with compound were performed in duplicate.
After incubation, 10 μL of CellTiter-Glo (Promega) was added to each well allowed to incubate for approximately 12 minutes. This reagent “results in cell lysis and generation of a luminescent signal proportional to the amount of ATP present. The amount of ATP is directly proportional to the number of cells present in culture, in agreement with previous reports. The CellTiter-Glo® Assay generates a “glow-type” luminescent signal, produced by the luciferase reaction (Promega.com)”.

[2] = tested on: Wnt activity (Sp5-Luc reporter in SW480 cells); experiment: Screening assay for Wnt activity: Sp5-Luc reporter gene assay in SW480 colon carcinoma cells; type: cell-based, human; settings: Homo sapiens, 36 to 48 hours
Text: The screening assay for Wnt activity is described as follows. Reporter cell lines can be generated by stably transducing cancer cell lines (e.g., colon cancer) or primary cells (e.g., IEC-6 intestinal cells) with a lentiviral construct that includes a Wnt-responsive promoter driving expression of the firefly luciferase gene.
SW480 colon carcinoma cells were transduced with a lentiviral vector expressing luciferase with a human Sp5 promoter consisting of a sequence of eight TCF/LEF binding sites. SW480 cells stably expressing the Sp5-Luc reporter gene and a hygromycin resistance gene were selected by treatment with 150 μg/mL of hygromycin for 7 days. These stably transduced SW480 cells were expanded in cell culture and used for all further screening activities. […] For Sp5-Luc reporter gene assays, the cells were plated at 4,000 cells/well in 384-well plates with a DMEM medium containing 1% fetal bovine serum, and 1% Penicillin-Streptomycin and incubated for 36 to 48 hours at 37° C. and 5% CO2. Following incubation, 15 μl of BriteLite Plus luminescence reagent (Perkin Elmer) was added to each well of the 384-well assay plates. The plates were placed on an orbital shaker for 2 min and then luminescence was quantified using the Envision (Perkin Elmer) plate reader. Readings were normalized to DMSO only treated cells, and normalized activities were utilized for EC50 calculations using the dose-response log (inhibitor) vs. response-variable slope (four parameters) nonlinear regression feature available in GraphPad Prism 5.0 (or Dotmatics).

[3] = tested on: primary human fibroblasts derived from IPF patients (LL29 cells); experiment: Inhibition of the fibrotic process: αSMA staining in TGF-β1 treated LL29 fibroblasts; type: cell-based; settings: Homo sapiens, Fibroblast, 96 h; LL29 cells, TGF-β1 20 ng/mL, 4 days, % αSMA positive cells
Procedure: Representative compounds were screened using primary human fibroblasts (derived from IPF patients) treated with TGF-β1 to determine their ability to inhibit the fibrotic process.
LL29 cells were plated at 1,500 cells/well in 70 μL/well F12 medium supplemented with 1% Fetal Bovine Serum. […] Wells treated with TGF-β1 and containing DMSO were used as positive control, and cells with only DMSO were negative control. […] Following incubation for 4 days, SYTOX green nucleic acid stain (Life Technologies [Thermo Fisher Scientific]) was added to the wells at a final concentration of 1 μM and incubated at room temperature for 30 min.

Chain of GSK3β kinase (P49841 whole entry): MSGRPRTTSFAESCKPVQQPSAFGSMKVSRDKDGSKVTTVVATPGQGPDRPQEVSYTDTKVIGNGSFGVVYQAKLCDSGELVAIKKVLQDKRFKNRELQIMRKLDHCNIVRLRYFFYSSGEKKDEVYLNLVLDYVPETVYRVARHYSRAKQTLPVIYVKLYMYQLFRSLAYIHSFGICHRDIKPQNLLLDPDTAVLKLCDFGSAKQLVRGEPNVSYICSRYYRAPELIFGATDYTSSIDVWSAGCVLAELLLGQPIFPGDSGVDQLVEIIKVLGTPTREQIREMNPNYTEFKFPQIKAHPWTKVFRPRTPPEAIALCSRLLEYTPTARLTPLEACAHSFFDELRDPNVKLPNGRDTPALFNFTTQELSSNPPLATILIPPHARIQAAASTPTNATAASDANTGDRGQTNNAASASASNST

| SMILES | IC50 (GSK3β kinase) | IC50 (DYRK1A kinase) | EC50 [1] | EC50 [2] | EC50 [3] |
| --- | --- | --- | --- | --- | --- |
| Cn1cc(-c2cc(Cl)c3[nH]nc(C(=O)NC4CCC(F)(F)CC4)c3c2)cn1 [Compound 17, 7-Chloro-N-(4,4-difluorocyclohexyl)-5-(1-methyl-1H-pyrazol-4-yl)-1H-indazole-3-carboxamide] | > 10000 nM | > 10000 nM | > 10000 nM | > 10000 nM | 1200 nM |
| CC(C)(C)n1cc(-c2ccc3[nH]nc(C(=O)N[C@H]4CC[C@H](CN5CC(F)C5)CC4)c3c2)cn1 [Compound 25, 5-(1-(tert-Butyl)-1H-pyrazol-4-yl)-N-((1R,4R)-4-((3-fluoroazetidin-1-yl)methyl)cyclohexyl)-1H-indazole-3-carboxamide] | 788 nM | 618 nM | 6020 nM | > 10000 nM | 1890 nM |
| CN1CCC(NC(=O)c2n[nH]c3ccc(-c4cc(C(F)(F)F)nn4C)cc23)CC1 [Compound 29, 5-(1-Methyl-3-(trifluoromethyl)-1H-pyrazol-5-yl)-N-(1-methylpiperidin-4-yl)-1H-indazole-3-carboxamide] | > 10000 nM | > 10000 nM | 9240 nM | > 10000 nM | > 10000 nM |
| Cc1ncc(-c2ccc3[nH]nc(C(=O)NC4CCN(CC(C)(C)F)CC4)c3c2)n1C [Compound 42, 5-(1,2-Dimethyl-1H-imidazol-5-yl)-N-(1-(2-fluoro-2-methylpropyl)piperidin-4-yl)-1H-indazole-3-carboxamide] | 29 nM | 28 nM | – | – | – |
| C[C@H]1C[C@H](NC(=O)c2n[nH]c3ccc(-c4cnn(C)c4)cc23)CCN1CC(C)(C)F [Compound 44, N-((2S,4R)-1-(2-fluoro-2-methylpropyl)-2-methylpiperidin-4-yl)-5-(1-methyl-1H-pyrazol-4-yl)-1H-indazole-3-carboxamide] | 7 nM | 7 nM | – | – | – |
| O=C(Nc1ccc(F)cc1)c1n[nH]c2ccc(-c3cnn(C4CNC4)c3)cc12 [Compound 47, 5-(1-(Azetidin-3-yl)-1H-pyrazol-4-yl)-N-(4-fluorophenyl)-1H-indazole-3-carboxamide] | 674 nM | 190 nM | > 10000 nM | 4580 nM | 5210 nM |
| O=C(Nc1ccc(F)cc1)c1n[nH]c2ccc(-c3cnc4n3CCNC4)cc12 [Compound 52, N-(4-Fluorophenyl)-5-(5,6,7,8-tetrahydroimidazo[1,2-a]pyrazin-3-yl)-1H-indazole-3-carboxamide] | 11 nM | 11 nM | – | > 10000 nM | – |
| O=C(Nc1ccc(F)cc1)c1n[nH]c2ccc(-c3nnc4n3CCNC4)cc12 [Compound 53, N-(4-Fluorophenyl)-5-(5,6,7,8-tetrahydro-[1,2,4]triazolo[4,3-a]pyrazin-3-yl)-1H-indazole-3-carboxamide] | 1 nM | 27 nM | > 10000 nM | 1840 nM | > 10000 nM |
| O=C(Nc1ccc(OC(F)F)cc1)c1n[nH]c2ccc(-c3cnn(C4CCNCC4F)c3)cc12 (stereo not drawn) [Compound 57, N-(4-(Difluoromethoxy)phenyl)-5-(1-(3-fluoropiperidin-4-yl)-1H-pyrazol-4-yl)-1H-indazole-3-carboxamide] | 5380 nM | 1050 nM | 570 nM | 1090 nM | 597 nM |
| CN1CCC(n2cc(-c3ccc4[nH]nc(C(=O)Nc5ccc(OC(F)F)cc5)c4c3)cn2)CC1 [Compound 58, N-(4-(Difluoromethoxy)phenyl)-5-(1-(1-methylpiperidin-4-yl)-1H-pyrazol-4-yl)-1H-indazole-3-carboxamide] | 3020 nM | 53 nM | 328 nM | 1500 nM | 5140 nM |
| CC(C)(F)CN1CCC(n2cc(-c3ccc4[nH]nc(C(=O)Nc5ccc(OC(F)F)cc5)c4c3)cn2)CC1 [Compound 61, N-(4-(difluoromethoxy)phenyl)-5-(1-(1-(2-fluoro-2-methylpropyl)piperidin-4-yl)-1H-pyrazol-4-yl)-1H-indazole-3-carboxamide] | 9370 nM | 9940 nM | > 10000 nM | > 10000 nM | 9 nM |
| O=C(Nc1ccc(OC(F)F)cc1)c1n[nH]c2ccc(-c3cnn(C4CCOCC4)c3)cc12 [Compound 62, N-(4-(Difluoromethoxy)phenyl)-5-(1-(tetrahydro-2H-pyran-4-yl)-1H-pyrazol-4-yl)-1H-indazole-3-carboxamide] | > 10000 nM | 3920 nM | > 10000 nM | 2280 nM | 3100 nM |
| O=C(Nc1ccc(OC(F)F)cc1)c1n[nH]c2ccc(-c3cnc4n3CCNC4)cc12 [Compound 64, N-(4-(Difluoromethoxy)phenyl)-5-(5,6,7,8-tetrahydroimidazo[1,2-a]pyrazin-3-yl)-1H-indazole-3-carboxamide] | 21 nM | 16 nM | 1700 nM | 937 nM | 1530 nM |
| Cn1cc(-c2cc3c(C(=O)Nc4ccc(CN5CC(F)C5)cc4)n[nH]c3cc2F)cn1 [Compound 67, 6-Fluoro-N-(4-((3-fluoroazetidin-1-yl)methyl)phenyl)-5-(1-methyl-1H-pyrazol-4-yl)-1H-indazole-3-carboxamide] | 35 nM | 9 nM | 1000 nM | 549 nM | 150 nM |
| Cn1cc(-c2cc3c(C(=O)Nc4ccc(CN5CCC(F)(F)CC5)cc4)n[nH]c3cc2F)cn1 [Compound 76, N-(4-((4,4-Difluoropiperidin-1-yl)methyl)phenyl)-6-fluoro-5-(1-methyl-1H-pyrazol-4-yl)-1H-indazole-3-carboxamide] | 302 nM | 107 nM | 6200 nM | 1290 nM | 174 nM |
| Cn1cc(-c2cc3c(C(=O)Nc4ccc(CN5CCOCC5)cc4)n[nH]c3cc2F)cn1 [Compound 77, 6-Fluoro-5-(1-methyl-1H-pyrazol-4-yl)-N-(4-(morpholinomethyl)phenyl)-1H-indazole-3-carboxamide] | 26 nM | 4 nM | 2830 nM | 411 nM | 291 nM |
